Measured values reported in patent US8987267B2, “2-substituted-8-alkyl-7-OXO-7,8-dihydropyrido[2,3-D]pyrimidine-6-carbonitriles and uses thereof in treating proliferative disorders” (Temple University—of the Commonwealth System of Higher …, priority 2010, dated 2015).

How the values were obtained:
NLK = NLK (Homo sapiens, UniProt Q9UBE8); assay: Kinase inhibition panel; assay type: biochemical; conditions: 10 μM ATP
FYN = FYN (Homo sapiens, UniProt P06241); assay: Kinase inhibition panel; assay type: biochemical; conditions: 10 μM ATP
PKCnu/PRK D3 = PKCnu/PRK D3 (Homo sapiens, UniProt O94806); assay: Kinase inhibition panel; assay type: biochemical; conditions: 10 μM ATP
TBK1 = TBK1 (Homo sapiens, UniProt Q9UHD2); assay: Kinase inhibition panel; assay type: biochemical; conditions: 10 μM ATP
SNU-398 = assay: Cytotoxicity assay, viable cell count; assay type: cell-based; conditions: Homo sapiens; SNU-398, Liver; 96 h continuous treatment, trypan blue
Experimental: (§1) Cells (1×10^5) were plated into 6-well dishes and 24 h later 8-cyclopentyl-2-((4-(4-methylpiperazin-1-yl)phenyl)amino)-7-oxo-7,8-dihydropyrido[2,3-d]pyrimidine-6-carbonitrile (12) was added at five different concentrations over a 2 log dilution (1-100 μM). The total number of viable cells was determined after 96 h of continuous treatment by staining with trypan blue and counting the number of non-staining cells (viable) remaining in each well using a hemacytometer. The percentage of viable cells remaining was calculated as follows: # viable cells (compound treated)/# viable cells (DMSO treated)*100.

Z138C = assay: Cytotoxicity assay, viable cell count; assay type: cell-based; conditions: MCL, 96 h continuous treatment, trypan blue
Experimental: as §1

MCF-7 = assay: Cytotoxicity assay, viable cell count; assay type: cell-based; conditions: Homo sapiens, MCF7; MCF-7, ER + Breast; 96 h continuous treatment, trypan blue
Experimental: as §1

A549 = assay: Cytotoxicity assay, viable cell count; assay type: cell-based; conditions: Homo sapiens; A549, NSCLC; 96 h continuous treatment, trypan blue
Experimental: as §1

U87 = assay: Cytotoxicity assay, viable cell count; assay type: cell-based; conditions: Homo sapiens, U-87 MG; U87, Glioblastoma; 96 h continuous treatment, trypan blue
Experimental: as §1

HCT-15 = assay: Cytotoxicity assay, viable cell count; assay type: cell-based; conditions: Homo sapiens; HCT-15, Colon (MDR elevated); 96 h continuous treatment, trypan blue
Experimental: as §1

RAJI = assay: Cytotoxicity assay, viable cell count; assay type: cell-based; conditions: Homo sapiens, B-Cell Lymphoma, 96 h continuous treatment, trypan blue
Experimental: as §1

JURKAT = assay: Cytotoxicity assay, viable cell count; assay type: cell-based; conditions: Homo sapiens, T-Cell Lymphoma, 96 h continuous treatment, trypan blue
Experimental: as §1

COLO-205 = assay: Cytotoxicity assay, viable cell count; assay type: cell-based; conditions: Homo sapiens; COLO-205, Colon; 96 h continuous treatment, trypan blue
Experimental: as §1

SNU-449 = assay: Cytotoxicity assay, viable cell count; assay type: cell-based; conditions: Homo sapiens; SNU-449, Liver; 96 h continuous treatment, trypan blue
Experimental: as §1

DLD-1 = assay: Cytotoxicity assay, viable cell count; assay type: cell-based; conditions: Homo sapiens; DLD-1, COLO-RECTAL; 96 h continuous treatment, trypan blue
Experimental: as §1

SK-OV-3 = assay: Cytotoxicity assay, viable cell count; assay type: cell-based; conditions: Homo sapiens; SK-OV-3, Ovarian; 96 h continuous treatment, trypan blue
Experimental: as §1

HELA = assay: Cytotoxicity assay, viable cell count; assay type: cell-based; conditions: Homo sapiens, Cervical, 96 h continuous treatment, trypan blue
Experimental: as §1

SNU-5 = assay: Cytotoxicity assay, viable cell count; assay type: cell-based; conditions: Homo sapiens; SNU-5, Gastric; 96 h continuous treatment, trypan blue
Experimental: as §1

GRANTA-519 = assay: Cytotoxicity assay, viable cell count; assay type: cell-based; conditions: Homo sapiens; GRANTA-519, MCL; 96 h continuous treatment, trypan blue
Experimental: as §1

DU145 = assay: Cytotoxicity assay, viable cell count; assay type: cell-based; conditions: Homo sapiens, DU-145; DU145, PROSTATE; 96 h continuous treatment, trypan blue
Experimental: as §1

MDA-MB-468 = assay: Cytotoxicity assay, viable cell count; assay type: cell-based; conditions: Homo sapiens, MDA-MB-468, 96 h
Experimental: as §1

N417 = assay: Cytotoxicity assay, viable cell count; assay type: cell-based; conditions: N417, SCLC; 96 h continuous treatment, trypan blue
Experimental: as §1

MIA-PaCa-2 = assay: Cytotoxicity assay, viable cell count; assay type: cell-based; conditions: Homo sapiens; MIA-PaCa-2, Pancreatic; 96 h continuous treatment, trypan blue
Experimental: as §1

N87 = assay: Cytotoxicity assay, viable cell count; assay type: cell-based; conditions: N87, Gastric(ErbB2+); 96 h continuous treatment, trypan blue
Experimental: as §1

BT20 = assay: Cytotoxicity assay, viable cell count; assay type: cell-based; conditions: Homo sapiens, BT-20; BT20, Breast; 96 h continuous treatment, trypan blue
Experimental: as §1

SK-BR-3 = assay: Cytotoxicity assay, viable cell count; assay type: cell-based; conditions: Homo sapiens; SK-BR-3, ErbB2 + Breast; 96 h continuous treatment, trypan blue
Experimental: as §1

SW480 = assay: Cytotoxicity assay, viable cell count; assay type: cell-based; conditions: Homo sapiens; SW480, COLO-RECTAL; 96 h continuous treatment, trypan blue
Experimental: as §1

U266 = assay: Cytotoxicity assay, viable cell count; assay type: cell-based; conditions: Homo sapiens, U-266; U266, Multiple Myeloma; 96 h continuous treatment, trypan blue
Experimental: as §1

SNU-475 = assay: Cytotoxicity assay, viable cell count; assay type: cell-based; conditions: Homo sapiens; SNU-475, Hepatocellular carcinoma; 96 h continuous treatment, trypan blue
Experimental: as §1

K562 = assay: Cytotoxicity assay, viable cell count; assay type: cell-based; conditions: Homo sapiens; K562, CML; 96 h continuous treatment, trypan blue
Experimental: as §1

BT474 = assay: Cytotoxicity assay, viable cell count; assay type: cell-based; conditions: Homo sapiens, BT-474; BT474, ErbB2 + Breast; 96 h continuous treatment, trypan blue
Experimental: as §1

ARK5 = ARK5 (Homo sapiens, UniProt O60285); assay: Kinase inhibition panel; assay type: biochemical; conditions: 10 μM ATP
TTK = TTK (Homo sapiens, UniProt P33981); assay: Kinase inhibition panel; assay type: biochemical; conditions: 10 μM ATP
Chain of TTK (P33981 whole entry, species assumed): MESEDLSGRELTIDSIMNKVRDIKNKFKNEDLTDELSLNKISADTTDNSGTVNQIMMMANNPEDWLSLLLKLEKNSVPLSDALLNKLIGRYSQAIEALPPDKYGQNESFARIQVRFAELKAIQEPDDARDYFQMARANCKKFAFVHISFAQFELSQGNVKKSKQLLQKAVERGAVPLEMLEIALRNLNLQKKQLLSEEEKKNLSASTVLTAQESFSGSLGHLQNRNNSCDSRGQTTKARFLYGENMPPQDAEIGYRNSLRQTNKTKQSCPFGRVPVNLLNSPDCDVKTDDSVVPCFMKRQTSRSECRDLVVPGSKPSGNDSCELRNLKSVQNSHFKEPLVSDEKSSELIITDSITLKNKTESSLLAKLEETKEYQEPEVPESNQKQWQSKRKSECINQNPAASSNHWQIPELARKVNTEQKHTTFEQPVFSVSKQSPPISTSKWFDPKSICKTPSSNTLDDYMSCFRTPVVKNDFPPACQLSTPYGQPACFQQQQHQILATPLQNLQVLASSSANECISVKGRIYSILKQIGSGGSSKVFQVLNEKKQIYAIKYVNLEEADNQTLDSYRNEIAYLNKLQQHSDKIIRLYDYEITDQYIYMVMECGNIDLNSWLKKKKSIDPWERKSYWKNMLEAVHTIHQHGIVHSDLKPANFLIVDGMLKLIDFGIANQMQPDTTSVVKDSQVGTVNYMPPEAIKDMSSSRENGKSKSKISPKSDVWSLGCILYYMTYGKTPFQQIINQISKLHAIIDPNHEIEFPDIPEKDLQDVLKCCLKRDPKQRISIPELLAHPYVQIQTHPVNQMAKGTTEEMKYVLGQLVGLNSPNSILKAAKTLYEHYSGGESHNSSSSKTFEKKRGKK

Chain of ARK5 (O60285 whole entry, species assumed): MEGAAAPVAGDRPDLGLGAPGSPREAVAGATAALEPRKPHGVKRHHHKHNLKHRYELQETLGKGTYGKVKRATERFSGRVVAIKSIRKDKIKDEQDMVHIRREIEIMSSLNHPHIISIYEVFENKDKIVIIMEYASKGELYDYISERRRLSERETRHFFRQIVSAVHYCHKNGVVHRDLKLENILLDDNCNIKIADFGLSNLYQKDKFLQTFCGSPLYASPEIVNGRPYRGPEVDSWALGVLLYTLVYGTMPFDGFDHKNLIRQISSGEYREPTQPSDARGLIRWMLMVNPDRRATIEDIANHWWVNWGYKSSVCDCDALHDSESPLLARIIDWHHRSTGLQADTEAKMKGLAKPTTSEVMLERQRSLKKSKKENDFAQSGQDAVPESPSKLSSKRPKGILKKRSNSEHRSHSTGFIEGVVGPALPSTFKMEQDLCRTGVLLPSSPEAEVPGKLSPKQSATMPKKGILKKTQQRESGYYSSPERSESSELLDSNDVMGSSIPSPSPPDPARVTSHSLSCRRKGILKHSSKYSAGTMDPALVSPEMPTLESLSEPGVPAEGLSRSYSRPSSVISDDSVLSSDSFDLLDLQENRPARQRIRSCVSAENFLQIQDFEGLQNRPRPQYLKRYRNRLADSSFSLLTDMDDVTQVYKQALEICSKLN
Chain of NLK (Q9UBE8 whole entry): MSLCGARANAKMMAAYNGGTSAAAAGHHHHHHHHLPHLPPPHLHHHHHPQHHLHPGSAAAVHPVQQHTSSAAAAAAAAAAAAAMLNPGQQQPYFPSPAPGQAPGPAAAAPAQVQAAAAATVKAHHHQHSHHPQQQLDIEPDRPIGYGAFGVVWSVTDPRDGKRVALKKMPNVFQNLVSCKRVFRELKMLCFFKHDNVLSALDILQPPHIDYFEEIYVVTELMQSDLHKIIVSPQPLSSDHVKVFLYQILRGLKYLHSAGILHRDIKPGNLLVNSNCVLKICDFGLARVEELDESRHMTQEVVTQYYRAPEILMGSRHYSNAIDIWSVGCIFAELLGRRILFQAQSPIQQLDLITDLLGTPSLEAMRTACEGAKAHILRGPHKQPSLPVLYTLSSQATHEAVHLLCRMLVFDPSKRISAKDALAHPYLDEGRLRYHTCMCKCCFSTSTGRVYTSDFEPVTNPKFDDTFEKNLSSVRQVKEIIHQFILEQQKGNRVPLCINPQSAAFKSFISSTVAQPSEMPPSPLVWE
Chain of PKCnu/PRK D3 (O94806 whole entry): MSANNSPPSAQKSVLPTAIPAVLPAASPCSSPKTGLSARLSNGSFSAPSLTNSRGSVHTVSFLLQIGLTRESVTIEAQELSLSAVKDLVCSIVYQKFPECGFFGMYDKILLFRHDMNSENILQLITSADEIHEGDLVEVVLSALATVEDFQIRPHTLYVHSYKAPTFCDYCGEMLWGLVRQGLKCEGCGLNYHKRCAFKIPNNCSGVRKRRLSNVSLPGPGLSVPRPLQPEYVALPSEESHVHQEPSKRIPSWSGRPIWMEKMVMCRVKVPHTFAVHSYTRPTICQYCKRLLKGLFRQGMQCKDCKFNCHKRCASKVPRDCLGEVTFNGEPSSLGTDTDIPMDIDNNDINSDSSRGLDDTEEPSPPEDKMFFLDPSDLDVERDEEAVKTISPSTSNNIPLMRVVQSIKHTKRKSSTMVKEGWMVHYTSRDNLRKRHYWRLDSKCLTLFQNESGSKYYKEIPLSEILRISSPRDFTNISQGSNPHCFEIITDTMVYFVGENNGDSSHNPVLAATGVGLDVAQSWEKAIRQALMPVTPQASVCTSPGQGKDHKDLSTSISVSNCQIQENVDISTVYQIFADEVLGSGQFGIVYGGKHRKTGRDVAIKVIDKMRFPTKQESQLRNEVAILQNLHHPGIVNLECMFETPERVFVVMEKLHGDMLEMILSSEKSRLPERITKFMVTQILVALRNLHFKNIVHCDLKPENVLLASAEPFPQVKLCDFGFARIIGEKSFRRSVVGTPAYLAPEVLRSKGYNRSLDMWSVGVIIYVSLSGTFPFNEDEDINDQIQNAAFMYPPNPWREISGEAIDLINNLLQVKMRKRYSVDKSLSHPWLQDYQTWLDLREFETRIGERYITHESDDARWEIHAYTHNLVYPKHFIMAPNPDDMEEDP
Chain of TBK1 (Q9UHD2 whole entry, species assumed): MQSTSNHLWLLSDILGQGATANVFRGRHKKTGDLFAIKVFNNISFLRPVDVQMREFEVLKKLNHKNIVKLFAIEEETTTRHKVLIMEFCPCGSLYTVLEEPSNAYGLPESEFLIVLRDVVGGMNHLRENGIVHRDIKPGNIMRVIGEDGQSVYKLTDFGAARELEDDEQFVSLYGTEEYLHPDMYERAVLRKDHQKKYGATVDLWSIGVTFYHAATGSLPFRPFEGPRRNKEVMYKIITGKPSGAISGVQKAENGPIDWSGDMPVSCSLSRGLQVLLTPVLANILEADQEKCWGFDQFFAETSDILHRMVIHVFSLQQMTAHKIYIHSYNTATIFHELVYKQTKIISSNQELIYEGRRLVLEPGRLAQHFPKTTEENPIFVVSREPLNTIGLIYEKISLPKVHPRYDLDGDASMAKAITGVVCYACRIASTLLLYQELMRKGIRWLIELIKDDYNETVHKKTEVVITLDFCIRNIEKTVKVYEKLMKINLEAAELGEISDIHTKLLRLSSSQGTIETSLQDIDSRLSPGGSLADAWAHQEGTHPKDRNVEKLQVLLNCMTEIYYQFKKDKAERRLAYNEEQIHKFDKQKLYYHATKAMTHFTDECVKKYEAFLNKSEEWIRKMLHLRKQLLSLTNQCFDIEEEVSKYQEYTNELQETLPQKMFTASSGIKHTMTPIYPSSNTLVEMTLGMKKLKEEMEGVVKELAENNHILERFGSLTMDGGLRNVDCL
Chain of FYN (P06241 whole entry, species assumed): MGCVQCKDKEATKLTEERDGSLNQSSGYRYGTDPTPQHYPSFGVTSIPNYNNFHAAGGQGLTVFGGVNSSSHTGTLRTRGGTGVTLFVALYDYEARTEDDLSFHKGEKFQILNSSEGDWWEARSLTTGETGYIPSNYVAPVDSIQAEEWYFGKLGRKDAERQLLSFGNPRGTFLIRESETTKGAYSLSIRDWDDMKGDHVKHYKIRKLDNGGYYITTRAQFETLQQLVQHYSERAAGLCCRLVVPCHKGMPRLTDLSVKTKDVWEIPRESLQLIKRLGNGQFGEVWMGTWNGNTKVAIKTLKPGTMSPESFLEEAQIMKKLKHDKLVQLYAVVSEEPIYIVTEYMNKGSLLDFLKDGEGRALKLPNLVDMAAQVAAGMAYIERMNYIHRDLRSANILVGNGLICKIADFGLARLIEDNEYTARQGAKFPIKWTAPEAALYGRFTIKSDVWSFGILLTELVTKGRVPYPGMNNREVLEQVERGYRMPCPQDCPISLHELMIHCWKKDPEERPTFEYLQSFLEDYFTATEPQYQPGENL

Work on `CN1CCN(c2ccc(Nc3ncc4cc(C#N)c(=O)n(C5CCCC5)c4n3)cc2)CC1` [Compound 12, 8-cyclopentyl-2-((4-(4-methylpiperazin-1-yl)phenyl)amino)-7-oxo-7,8-dihydropyrido[2,3-d]pyrimidine-6-carbonitrile] yielded an IC50 (NLK) of 45.3 nM, an IC50 (FYN) of 26.6 nM and an IC50 (PKCnu/PRK D3) of 55.8 nM. For the same compound, the IC50 (TBK1) was 71.8 nM, the GI50 (SNU-398) was 500 nM and the GI50 (Z138C) was 25 nM. For the same compound, the GI50 (MCF-7) was 150 nM, the GI50 (A549) was 200 nM and the GI50 (U87) was 100 nM. For the same compound, the GI50 (HCT-15) was 400 nM, the GI50 (RAJI) was 250 nM and the GI50 (JURKAT) was 150 nM. For the same compound, the GI50 (COLO-205) was 200 nM, the GI50 (SNU-449) was 750 nM and the GI50 (DLD-1) was 100 nM. It also gave a GI50 (SK-OV-3) of 750 nM, a GI50 (HELA) of 750 nM and a GI50 (SNU-5) of 200 nM. The GI50 (GRANTA-519) was 75 nM, the GI50 (DU145) was 750 nM and the GI50 (MDA-MB-468) was 1500 nM. It also gave a GI50 (N417) of 250 nM, a GI50 (MIA-PaCa-2) of 250 nM and a GI50 (N87) of 900 nM. It also gave a GI50 (BT20) of 100 nM, a GI50 (SK-BR-3) of 600 nM and a GI50 (SW480) of 100 nM. It also gave a GI50 (U266) of 200 nM, a GI50 (SNU-475) of 300 nM and a GI50 (K562) of 500 nM. The GI50 (BT474) was 250 nM, the IC50 (ARK5) was 7.85 nM and the IC50 (TTK) was 156 nM.
